We go through 4 compounds from article PMC12586182 (Frontiers in Oncology, 2025).

One assay addresses T1, AMPKα1/β1/γ1 (Homo sapiens, UniProt Q13131).
T1 construct: purchased Carna Biosciences
The assay can be described thus: Kinase panel profiling at 1 µmol/L (mobility shift assay, Carna). In kind it is biochemical. The conditions noted are these: 1 µmol/L of BTK inhibitor.

The target in another assay is T2, MAPKAPK2 (Homo sapiens, UniProt P49137).
T2 construct: purchased Carna Biosciences
Described as above. It counts as biochemical. The conditions noted are these: 1 µmol/L of BTK inhibitor.

A further assay concerns the target T3, CK2α1/β (Homo sapiens, UniProt P68400).
T3 construct: purchased Carna Biosciences
The assay is described as above. It counts as biochemical. The conditions noted are these: 1 µmol/L of BTK inhibitor.

A further assay deals with T4, HIPK2 (Homo sapiens, UniProt Q9H2X6).
T4 construct: purchased Carna Biosciences
T4 sequence (Q9H2X6 whole entry): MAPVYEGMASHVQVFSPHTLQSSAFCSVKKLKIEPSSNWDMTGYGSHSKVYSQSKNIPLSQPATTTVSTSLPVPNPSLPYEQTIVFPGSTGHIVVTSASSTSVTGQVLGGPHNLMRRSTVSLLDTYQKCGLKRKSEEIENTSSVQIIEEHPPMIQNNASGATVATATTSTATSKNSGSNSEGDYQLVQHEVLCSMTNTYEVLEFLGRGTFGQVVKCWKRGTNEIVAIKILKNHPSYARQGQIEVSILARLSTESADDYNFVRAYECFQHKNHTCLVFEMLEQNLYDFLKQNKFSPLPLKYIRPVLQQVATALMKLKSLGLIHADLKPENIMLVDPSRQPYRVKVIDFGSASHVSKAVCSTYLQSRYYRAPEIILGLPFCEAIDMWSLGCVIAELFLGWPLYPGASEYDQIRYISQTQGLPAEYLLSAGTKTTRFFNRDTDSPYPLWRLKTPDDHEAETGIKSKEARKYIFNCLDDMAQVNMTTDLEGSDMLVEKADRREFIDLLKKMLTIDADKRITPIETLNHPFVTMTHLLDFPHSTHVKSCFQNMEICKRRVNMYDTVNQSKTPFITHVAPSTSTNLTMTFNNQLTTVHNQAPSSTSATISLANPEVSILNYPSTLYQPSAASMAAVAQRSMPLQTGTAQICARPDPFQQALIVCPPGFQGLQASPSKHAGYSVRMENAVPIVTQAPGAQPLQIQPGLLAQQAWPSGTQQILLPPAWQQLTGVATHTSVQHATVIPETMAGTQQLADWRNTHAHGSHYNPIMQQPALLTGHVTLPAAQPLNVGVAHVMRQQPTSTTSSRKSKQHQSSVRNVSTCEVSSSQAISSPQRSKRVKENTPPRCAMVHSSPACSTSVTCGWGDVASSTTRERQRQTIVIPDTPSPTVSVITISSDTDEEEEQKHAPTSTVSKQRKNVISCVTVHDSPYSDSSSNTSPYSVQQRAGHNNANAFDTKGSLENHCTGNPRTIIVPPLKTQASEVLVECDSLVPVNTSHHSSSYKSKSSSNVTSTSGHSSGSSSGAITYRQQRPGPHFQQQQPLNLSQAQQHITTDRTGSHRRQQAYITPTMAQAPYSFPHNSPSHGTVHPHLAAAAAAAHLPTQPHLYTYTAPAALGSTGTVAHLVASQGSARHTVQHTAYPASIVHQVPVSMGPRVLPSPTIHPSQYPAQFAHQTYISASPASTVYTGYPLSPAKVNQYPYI
The assay is described as above. The conditions noted are these: 1 µmol/L of BTK inhibitor. In kind it is biochemical.

The next assay deals with T5, CK1γ1 (Homo sapiens, UniProt Q9HCP0).
T5 construct: purchased Carna Biosciences
The description is as above. It counts as biochemical. The conditions noted are these: 1 µmol/L of BTK inhibitor.

The next assay deals with T6, SRPK2 (Homo sapiens, UniProt P78362).
T6 construct: purchased Carna Biosciences
The description is as above. It counts as biochemical. The conditions noted are these: 1 µmol/L of BTK inhibitor.

A further assay addresses T7, CaMK2β (Homo sapiens, UniProt Q13554).
T7 construct: purchased Carna Biosciences
The assay is described as above. It counts as biochemical. The conditions noted are these: 1 µmol/L of BTK inhibitor.

In another assay the target is FGFR3 (Homo sapiens, UniProt P22607). The assay can be described thus: Kinase enzyme activity assay (mobility shift assay, Carna). The conditions noted are these: for Percentage inhibition of kinase enzyme activity: FGFR3, 1 µmol/L of BTK inhibitor.
For another assay, the target named is T8, PHKG2 (Homo sapiens, UniProt P15735).
T8 construct: purchased Carna Biosciences
T8 sequence (P15735 1-406): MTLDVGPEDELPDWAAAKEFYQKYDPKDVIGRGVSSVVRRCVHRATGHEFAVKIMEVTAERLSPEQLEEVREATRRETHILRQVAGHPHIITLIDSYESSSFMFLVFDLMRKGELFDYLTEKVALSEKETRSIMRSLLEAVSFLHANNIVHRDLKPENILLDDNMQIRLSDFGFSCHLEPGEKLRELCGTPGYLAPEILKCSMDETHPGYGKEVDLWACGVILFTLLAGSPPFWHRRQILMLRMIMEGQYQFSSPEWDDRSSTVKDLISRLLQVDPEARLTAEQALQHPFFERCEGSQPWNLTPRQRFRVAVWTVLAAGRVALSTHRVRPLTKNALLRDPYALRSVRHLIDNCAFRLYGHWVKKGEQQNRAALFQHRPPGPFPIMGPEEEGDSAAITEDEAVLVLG
The assay can be described thus: Kinase panel profiling at 1 µmol/L (mobility shift assay, Carna). It counts as biochemical. The conditions noted are these: 1 µmol/L of BTK inhibitor.

The target of another assay is T9, IRAK1 (Homo sapiens, UniProt P51617).
T9 construct: purchased Carna Biosciences
The description is as above. The conditions noted are these: 1 µmol/L of BTK inhibitor. It counts as biochemical.

Another assay addresses T10, TYK2 (Homo sapiens, UniProt P29597).
T10 construct: purchased Carna Biosciences
The description is as above. The conditions noted are these: 1 µmol/L of BTK inhibitor. It counts as biochemical.

A further assay concerns the target T11, CLK2 (Homo sapiens, UniProt P49760).
T11 construct: purchased Carna Biosciences
Described as above. In kind it is biochemical. The conditions noted are these: 1 µmol/L of BTK inhibitor.

The target in another assay is T12, PDHK2 (Homo sapiens, UniProt Q15119).
T12 construct: purchased Carna Biosciences
Described as above. In kind it is biochemical. The conditions noted are these: 1 µmol/L of BTK inhibitor.

Another assay deals with T13, MST4 (Homo sapiens, UniProt Q9P289).
T13 construct: purchased Carna Biosciences
The description is as above. It counts as biochemical. The conditions noted are these: 1 µmol/L of BTK inhibitor.

For a further assay, the target named is T14, NEK4 (Homo sapiens, UniProt P51957).
T14 construct: purchased Carna Biosciences
Described as above. In kind it is biochemical. The conditions noted are these: 1 µmol/L of BTK inhibitor.

The target of another assay is T15, CDK7/CycH/MAT1 (Homo sapiens, UniProt P50613).
T15 construct: purchased Carna Biosciences
T15 sequence (P50613 whole entry): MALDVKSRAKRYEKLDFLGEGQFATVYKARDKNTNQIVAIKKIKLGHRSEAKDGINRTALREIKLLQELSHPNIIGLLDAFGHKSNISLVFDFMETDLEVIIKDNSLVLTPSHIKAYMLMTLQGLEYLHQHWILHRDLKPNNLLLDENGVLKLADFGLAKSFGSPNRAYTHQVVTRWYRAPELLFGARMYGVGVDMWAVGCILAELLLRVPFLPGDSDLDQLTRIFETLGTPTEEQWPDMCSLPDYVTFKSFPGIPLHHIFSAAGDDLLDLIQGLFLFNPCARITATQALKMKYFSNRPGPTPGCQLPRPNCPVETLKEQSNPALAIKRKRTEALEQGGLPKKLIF
T15 sequence (P51946 whole entry partner): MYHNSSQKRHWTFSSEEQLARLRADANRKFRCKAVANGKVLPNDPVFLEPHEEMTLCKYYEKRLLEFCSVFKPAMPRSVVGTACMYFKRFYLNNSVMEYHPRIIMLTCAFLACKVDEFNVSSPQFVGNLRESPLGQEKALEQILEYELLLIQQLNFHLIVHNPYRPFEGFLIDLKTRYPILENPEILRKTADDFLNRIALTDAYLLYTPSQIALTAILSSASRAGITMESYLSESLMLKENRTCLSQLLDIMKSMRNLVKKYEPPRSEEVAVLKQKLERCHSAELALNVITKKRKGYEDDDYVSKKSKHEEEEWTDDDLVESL
T15 sequence (P51948 whole entry partner): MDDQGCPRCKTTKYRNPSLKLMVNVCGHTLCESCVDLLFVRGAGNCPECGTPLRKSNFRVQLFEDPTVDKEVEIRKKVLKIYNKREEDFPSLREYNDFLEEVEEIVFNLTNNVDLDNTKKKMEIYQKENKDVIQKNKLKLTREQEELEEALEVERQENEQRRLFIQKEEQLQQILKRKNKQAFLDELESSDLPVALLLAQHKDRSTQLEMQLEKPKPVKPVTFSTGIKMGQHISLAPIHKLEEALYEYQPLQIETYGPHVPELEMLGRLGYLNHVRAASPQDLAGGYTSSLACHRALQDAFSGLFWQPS
The description is as above. It counts as biochemical. The conditions noted are these: 1 µmol/L of BTK inhibitor.

Another assay concerns the target T16, AurC (Homo sapiens, UniProt Q9UQB9).
T16 construct: purchased Carna Biosciences
T16 sequence (Q9UQB9 1-309): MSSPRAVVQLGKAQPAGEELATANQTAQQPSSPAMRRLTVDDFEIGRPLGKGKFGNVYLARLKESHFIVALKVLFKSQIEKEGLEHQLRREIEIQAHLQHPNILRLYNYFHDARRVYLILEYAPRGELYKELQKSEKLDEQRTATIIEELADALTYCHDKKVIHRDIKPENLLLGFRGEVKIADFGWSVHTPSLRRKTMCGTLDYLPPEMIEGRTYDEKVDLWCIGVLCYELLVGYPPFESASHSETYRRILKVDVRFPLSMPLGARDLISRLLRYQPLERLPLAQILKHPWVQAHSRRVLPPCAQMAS
The description is as above. It counts as biochemical. The conditions noted are these: 1 µmol/L of BTK inhibitor.

In the next assay the target is T17, PKCη (Homo sapiens, UniProt P24723).
T17 construct: purchased Carna Biosciences
The description is as above. In kind it is biochemical. The conditions noted are these: 1 µmol/L of BTK inhibitor.

The target in the next assay is T18, PAK4 (Homo sapiens, UniProt O96013).
T18 construct: purchased Carna Biosciences
Described as above. In kind it is biochemical. The conditions noted are these: 1 µmol/L of BTK inhibitor.

Another assay concerns the target T19, GSK3α (Homo sapiens, UniProt P49840).
T19 construct: purchased Carna Biosciences
Described as above. It counts as biochemical. The conditions noted are these: 1 µmol/L of BTK inhibitor.

A further assay concerns the target T20, PIM3 (Homo sapiens, UniProt Q86V86).
T20 construct: purchased Carna Biosciences
The assay is described as above. In kind it is biochemical. The conditions noted are these: 1 µmol/L of BTK inhibitor.

Another assay addresses T21, TRKA (Homo sapiens, UniProt P04629).
T21 construct: purchased Carna Biosciences
The description is as above. In kind it is biochemical. The conditions noted are these: 1 µmol/L of BTK inhibitor.

The next assay has as its target ERK2 (Homo sapiens, UniProt P28482). The assay can be described thus: Kinase enzyme activity assay (mobility shift assay, Carna). The conditions noted are these: for Percentage inhibition of kinase enzyme activity: Erk2, 1 µmol/L of BTK inhibitor.
A further assay has as its target T22, HCK (Homo sapiens, UniProt P08631).
T22 construct: purchased Carna Biosciences
Put plainly: Kinase panel profiling at 1 µmol/L (mobility shift assay, Carna). It counts as biochemical. The conditions noted are these: 1 µmol/L of BTK inhibitor.

The target in another assay is T23, FMS (Homo sapiens, UniProt P07333).
T23 construct: purchased Carna Biosciences
T23 sequence (P07333 20-972): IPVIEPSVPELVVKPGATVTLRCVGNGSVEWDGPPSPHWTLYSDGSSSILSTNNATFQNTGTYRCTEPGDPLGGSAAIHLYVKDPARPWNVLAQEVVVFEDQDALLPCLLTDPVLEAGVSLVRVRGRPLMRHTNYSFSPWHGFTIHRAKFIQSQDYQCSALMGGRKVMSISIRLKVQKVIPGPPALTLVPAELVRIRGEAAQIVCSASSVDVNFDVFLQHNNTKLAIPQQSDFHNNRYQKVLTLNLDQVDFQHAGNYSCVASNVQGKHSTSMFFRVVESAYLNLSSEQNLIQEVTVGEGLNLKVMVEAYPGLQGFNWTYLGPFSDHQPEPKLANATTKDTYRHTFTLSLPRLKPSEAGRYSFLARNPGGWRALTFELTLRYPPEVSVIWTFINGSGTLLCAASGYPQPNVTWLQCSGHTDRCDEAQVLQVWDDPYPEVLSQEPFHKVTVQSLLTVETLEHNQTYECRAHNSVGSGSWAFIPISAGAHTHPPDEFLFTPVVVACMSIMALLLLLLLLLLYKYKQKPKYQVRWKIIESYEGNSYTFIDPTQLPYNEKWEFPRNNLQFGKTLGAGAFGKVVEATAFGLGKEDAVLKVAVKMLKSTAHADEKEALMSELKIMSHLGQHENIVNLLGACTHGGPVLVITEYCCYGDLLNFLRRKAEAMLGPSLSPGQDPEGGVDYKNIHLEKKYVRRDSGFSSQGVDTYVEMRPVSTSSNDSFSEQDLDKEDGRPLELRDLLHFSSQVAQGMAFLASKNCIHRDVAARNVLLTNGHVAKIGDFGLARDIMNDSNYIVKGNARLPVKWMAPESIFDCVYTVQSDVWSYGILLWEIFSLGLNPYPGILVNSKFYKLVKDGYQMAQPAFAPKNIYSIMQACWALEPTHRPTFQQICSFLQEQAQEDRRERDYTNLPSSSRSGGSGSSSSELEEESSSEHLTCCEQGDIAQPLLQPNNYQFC
Described as above. It counts as biochemical. The conditions noted are these: 1 µmol/L of BTK inhibitor.

Another assay addresses T24, CDK2/CycA2 (Homo sapiens, UniProt P24941).
T24 construct: purchased Carna Biosciences
Described as above. It counts as biochemical. The conditions noted are these: 1 µmol/L of BTK inhibitor.

Another assay addresses T25, RSK2 (Homo sapiens, UniProt P51812).
T25 construct: purchased Carna Biosciences
The description is as above. The conditions noted are these: 1 µmol/L of BTK inhibitor. It counts as biochemical.

T10 sequence (P29597 whole entry): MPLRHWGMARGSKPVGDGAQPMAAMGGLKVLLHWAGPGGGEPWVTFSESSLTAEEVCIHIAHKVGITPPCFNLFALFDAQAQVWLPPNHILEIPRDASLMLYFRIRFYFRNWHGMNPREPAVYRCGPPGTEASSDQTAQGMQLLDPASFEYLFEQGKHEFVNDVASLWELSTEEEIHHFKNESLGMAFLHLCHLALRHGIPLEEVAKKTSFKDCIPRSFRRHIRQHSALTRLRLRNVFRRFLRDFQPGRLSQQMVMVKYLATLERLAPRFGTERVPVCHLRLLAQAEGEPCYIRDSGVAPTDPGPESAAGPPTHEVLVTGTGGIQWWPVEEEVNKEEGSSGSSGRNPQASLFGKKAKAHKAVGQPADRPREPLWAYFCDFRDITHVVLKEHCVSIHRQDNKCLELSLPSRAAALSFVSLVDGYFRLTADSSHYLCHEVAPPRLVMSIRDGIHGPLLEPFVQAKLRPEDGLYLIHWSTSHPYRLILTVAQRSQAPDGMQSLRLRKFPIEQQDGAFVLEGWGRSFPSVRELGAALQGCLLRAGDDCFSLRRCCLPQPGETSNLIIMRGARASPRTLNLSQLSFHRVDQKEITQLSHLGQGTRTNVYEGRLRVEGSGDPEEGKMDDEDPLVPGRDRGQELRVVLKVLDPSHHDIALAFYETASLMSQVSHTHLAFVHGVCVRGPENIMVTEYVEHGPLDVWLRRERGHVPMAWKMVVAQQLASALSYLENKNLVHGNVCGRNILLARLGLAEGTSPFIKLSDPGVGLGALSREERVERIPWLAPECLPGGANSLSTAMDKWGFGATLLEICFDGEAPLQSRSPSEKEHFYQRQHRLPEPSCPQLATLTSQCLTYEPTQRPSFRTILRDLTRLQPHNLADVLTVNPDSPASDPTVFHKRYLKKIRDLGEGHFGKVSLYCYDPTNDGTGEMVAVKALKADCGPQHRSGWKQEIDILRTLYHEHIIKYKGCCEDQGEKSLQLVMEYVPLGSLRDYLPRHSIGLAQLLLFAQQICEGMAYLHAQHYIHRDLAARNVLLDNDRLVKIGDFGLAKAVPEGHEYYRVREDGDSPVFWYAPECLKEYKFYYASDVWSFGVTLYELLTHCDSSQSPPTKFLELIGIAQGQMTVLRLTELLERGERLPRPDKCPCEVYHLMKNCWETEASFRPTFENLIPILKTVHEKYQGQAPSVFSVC
T2 sequence (P49137 whole entry): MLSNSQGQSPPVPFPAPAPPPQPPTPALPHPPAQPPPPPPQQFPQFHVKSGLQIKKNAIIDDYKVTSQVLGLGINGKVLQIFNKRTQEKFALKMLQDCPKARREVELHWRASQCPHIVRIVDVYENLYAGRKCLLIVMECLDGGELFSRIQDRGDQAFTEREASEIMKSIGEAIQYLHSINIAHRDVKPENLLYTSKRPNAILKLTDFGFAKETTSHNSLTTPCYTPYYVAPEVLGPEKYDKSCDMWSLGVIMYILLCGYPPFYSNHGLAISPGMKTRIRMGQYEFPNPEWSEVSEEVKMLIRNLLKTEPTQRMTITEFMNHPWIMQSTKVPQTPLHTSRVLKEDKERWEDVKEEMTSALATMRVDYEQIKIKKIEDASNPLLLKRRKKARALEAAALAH

In the case of `CC#CC(=O)N1CCC[C@H]1c1nc(-c2ccc(C(=O)Nc3ccccn3)cc2)c2c(N)nccn12` [acalabrutinib], the “Percentage inhibition of kinase enzyme activity” value (shortened to “Percentage inhibition”) on AMPKα1/β1/γ1 was -4.92%; at MAPKAPK2, -20.51%; at CK2α1/β it was 5.34%; at HIPK2, -11.44%; at CK1γ1, 0.33%; at SRPK2, 0.69%. Also, the “Percentage inhibition” value at CaMK2β is -1.09%; at FGFR3 it was -1.31%; at PHKG2 it was 0.00605%; on IRAK1, -7.06%; on TYK2, 12.80%; on CLK2, -6.97%. Further, the “Percentage inhibition” value at PDHK2 is 0.16%; on MST4, -6.42%; on NEK4 it was -4.76%; at CDK7/CycH/MAT1, 5.25%; at AurC it was 7.21%; on PKCη it was -3.18%. Further, the “Percentage inhibition” value on PAK4 was -1.65%; on GSK3α, 2.47%; on PIM3 it was -0.0376%; on TRKA it was 12.80%; on ERK2, -2.02%; at HCK, 0.45%. Also, the figures for the “Percentage inhibition” value at FMS, on CDK2/CycA2 and at RSK2 were 7.76%, -5.19% and 0.054%, respectively.

`C=CC(=O)N1CCC[C@@H](n2nc(-c3ccc(Oc4ccccc4)cc3)c3c(N)ncnc32)C1` [ibrutinib]: the “Percentage inhibition” value on MAPKAPK2 was -12.65%; on CK2α1/β, -11.11%; on HIPK2 it was 2.01%; on CK1γ1 it was 3.68%; at SRPK2 it was 3.01%; on CaMK2β it was -2.56%. Further, the “Percentage inhibition” value at FGFR3 is given as 81.85%; at PHKG2, 0.82%; on IRAK1, -10.80%; on TYK2, 6.93%; at PDHK2, -1.08%; on MST4, 1.46%. Further, the “Percentage inhibition” value worked out at 4.65% at NEK4; 4.94% at CDK7/CycH/MAT1; 6.95% at AurC; 3.27% on PKCη; 10.65% on PAK4; 2.24% at GSK3α. In addition, the “Percentage inhibition” value at PIM3 is listed as -0.24%; at TRKA, 59.18%; on ERK2 it was -6.90%; at HCK, 99.66%; on FMS it was 18.52%; at CDK2/CycA2, -11.88%. Also, the “Percentage inhibition” value at RSK2 was 7.41%.

Consider `O=C(c1ccc(Oc2ccccc2)cc1Cl)c1c[nH]c2ncnc(N[C@@H]3CC[C@@H](CO)OC3)c12` [nemtabrutinib], for which the “Percentage inhibition” value on AMPKα1/β1/γ1 was 12.21%; at MAPKAPK2 it was -7.90%; on CK2α1/β it was -2.75%; on HIPK2 it was 3.26%; at CK1γ1, 0.57%; at SRPK2 it was 1.38%. Besides, the “Percentage inhibition” value at CaMK2β is given as 2.18%; on FGFR3, 86.25%; at PHKG2, 5.39%; on IRAK1, -0.39%; on TYK2, 10.79%; on CLK2, 56.28%. The “Percentage inhibition” value at PDHK2 is reported as 4.18%; at MST4, 57.51%; on NEK4, 7.11%; on CDK7/CycH/MAT1, -12.60%; at AurC it was 65.10%; at PKCη, 5.25%. In addition, the “Percentage inhibition” value was 53.09% on PAK4; -3.85% at GSK3α; -5.55% on PIM3; 99.52% at TRKA; 67.16% on ERK2; 96.80% at HCK. Moreover, the “Percentage inhibition” value at FMS is on record as 101.94%; on CDK2/CycA2, -1.69%; at RSK2, 7.48%. For the same compound, the figures for the IC50 at FGFR3 and at ERK2 were 70.1 nM and 505 nM, respectively. Further, the “Inhibition of ERK2” value at ERK2 is on record as “did not inhibit”.

As to `C=CC(=O)N1CCC([C@@H]2CCNc3c(C(N)=O)c(-c4ccc(Oc5ccccc5)cc4)nn32)CC1` [zanubrutinib], the “Percentage inhibition” value on FGFR3 was 6.11%; on NEK4 it was 0.95%; on AurC it was -0.85%; on FMS, 82.03%.
